Experimental data from ChEMBL document CHEMBL1141235, “Synthesis and preliminary evaluation of [3H]PSB-0413, a selective antagonist radioligand for platelet P2Y12 receptors” (Bioorg Med Chem Lett, 2005).

Target: P2Y purinoceptor 12 (Homo sapiens, UniProt Q9H244)
Assay: Binding affinity to P2Y12 receptor expressed in human platelets from 0.047 to 50 nM

P2Y purinoceptor 12, sequence (Q9H244 whole entry): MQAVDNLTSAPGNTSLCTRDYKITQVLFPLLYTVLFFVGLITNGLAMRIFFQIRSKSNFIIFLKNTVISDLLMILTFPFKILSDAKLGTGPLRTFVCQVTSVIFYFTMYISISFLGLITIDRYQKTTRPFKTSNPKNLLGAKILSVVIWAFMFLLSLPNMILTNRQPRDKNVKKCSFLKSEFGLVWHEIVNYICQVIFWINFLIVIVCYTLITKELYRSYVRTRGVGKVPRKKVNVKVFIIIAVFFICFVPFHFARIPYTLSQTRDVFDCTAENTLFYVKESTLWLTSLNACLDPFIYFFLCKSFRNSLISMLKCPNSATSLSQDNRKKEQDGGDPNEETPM

- Kd: 4.57 nM
SMILES: [3H]C([3H])([3H])C([3H])([3H])CSc1nc(N)c2ncn([C@@H]3O[C@H](COP(=O)(O)OP(=O)(O)C(Cl)(Cl)P(=O)(O)O)[C@@H](O)[C@H]3O)c2n1
